Laboratory results reported in paper PMC6767220, “Active Anti-Inflammatory and Hypolipidemic Derivatives of Lorazepam” (Molecules, 2019).
“Also recorded” adds a separate entry of the source. Read-outs that look alike come from different tables or passages of the source.

Legend:
soybean lipoxygenase-1 = molecular target: T1, soybean lipoxygenase-1 (Glycine max, UniProt P08170); assay: Inhibition of soybean lipoxygenase; format: biochemical
T1 sequence (P08170 1-839): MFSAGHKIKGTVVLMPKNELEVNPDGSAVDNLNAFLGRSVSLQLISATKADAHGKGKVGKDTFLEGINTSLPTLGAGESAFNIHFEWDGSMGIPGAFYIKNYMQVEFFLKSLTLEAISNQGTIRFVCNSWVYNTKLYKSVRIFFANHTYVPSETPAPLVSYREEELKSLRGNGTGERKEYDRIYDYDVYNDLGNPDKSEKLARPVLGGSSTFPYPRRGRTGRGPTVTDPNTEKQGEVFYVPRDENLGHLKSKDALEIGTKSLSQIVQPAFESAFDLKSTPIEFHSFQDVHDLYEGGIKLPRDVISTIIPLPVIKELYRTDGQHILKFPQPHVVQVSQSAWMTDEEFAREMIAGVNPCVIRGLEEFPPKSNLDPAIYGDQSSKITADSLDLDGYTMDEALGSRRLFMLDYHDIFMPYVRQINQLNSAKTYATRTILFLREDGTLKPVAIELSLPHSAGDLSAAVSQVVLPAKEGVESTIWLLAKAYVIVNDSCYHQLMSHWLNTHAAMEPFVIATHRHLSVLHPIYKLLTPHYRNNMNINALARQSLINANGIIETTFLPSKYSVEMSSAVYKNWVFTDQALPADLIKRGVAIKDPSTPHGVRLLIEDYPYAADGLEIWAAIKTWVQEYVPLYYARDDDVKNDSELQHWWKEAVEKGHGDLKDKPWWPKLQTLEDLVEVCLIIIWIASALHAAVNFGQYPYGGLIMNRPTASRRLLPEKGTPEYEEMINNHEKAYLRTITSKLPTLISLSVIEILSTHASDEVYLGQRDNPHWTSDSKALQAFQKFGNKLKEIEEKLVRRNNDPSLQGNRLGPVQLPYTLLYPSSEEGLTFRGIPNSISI
Experimental: The reaction mixture contained the test compounds dissolved in ethanol and soybean lipoxygenase (250 U/mL) in Tris buffer (pH 9). The reaction was initiated by the addition of sodium linoleate (0.1 mM) and monitored for 7 min at 28 °C, by recording the absorbance of a conjugated diene structure at 234 nm. For the estimation of the type of inhibition, the above experiments were repeated, using sodium linoleate at 1 mM, which is higher than the saturating substrate concentration.

[1] = system: carrageenan-induced rat paw oedema; assay: Carrageenan-induced rat paw oedema; format: in vivo; settings: ip, i.p. 0.15 mmol/kg, 3.5 h post administration, vs controls, read-out: % Oedema Reduction
Experimental: An aqueous solution of carrageenan was prepared (1% w/v) and 0.1 mL of this was injected i.d. into the right hind paw of female rats; the left paw served as control. The tested compounds (suspended in water with a few drops of Tween 80) were given intra peritoneally (i.p.) (0.15 mmol/kg) 5 min prior to the carrageenan injection. After 3.5 h the hind paws were weighed separately. The produced oedema was estimated as paw weight increase.

[2] = system: Triton WR1339 (tyloxapol) induced hyperlipidemia; assay: Triton WR1339 (tyloxapol) induced hyperlipidemia: plasma TC, TG, LDL-C; format: in vivo; settings: ip, rat plasma, 24 h, tyloxapol 200 mg/kg i.p.; for inhibition in vivo at 50 µmol/kg: dose i.p. 50 µmol/kg; for inhibition in vivo at 150 µmol/kg: dose i.p. 150 µmol/kg; for inhibition in vivo at 300 µmol/kg: dose i.p. 300 µmol/kg; for inhibition in vivo at 500 µmol/kg: dose i.p. 500 µmol/kg
[3] = system: rat hepatic microsomal membrane lipid peroxidation; assay: Inhibition of rat hepatic microsomal membrane lipid peroxidation induced by ferrous ascorbate; format: biochemical; settings: for Antioxidant activity (lipid peroxidation and DPPH experiments): lipid peroxidation inhibition and DPPH interaction, result in words; for IC50: rat hepatic microsomal fraction, ferrous ascorbate, 45 min incubation
Experimental: The incubation mixture contained heat-inactivated rat hepatic microsomal fraction, ascorbic acid (0.2 mM) in Tris–HCl/KCl buffer (pH 7.4) and the test compounds dissolved in dimethylsulphoxide. The reaction was initiated by FeSO4 (10 µM) and the mixture was incubated at 37 °C. Aliquots were taken at various time intervals for 45 min. Lipid peroxidation was assessed spectrophotometrically (535 against 600 nm) by the determination of 2-thiobarbituric acid (TBA) reactive material.

[4] = Interaction with the stable radical DPPH; settings: DPPH 200 µΜ, 30 min incubation
Experimental: Compounds (in absolute ethanol, final concentration 50–200 µM) were added to an equal volume of an ethanolic solution of DPPH (final concentration 200 µM) at room temperature (22 ± 2 °C). Absorbance (517 nm) was recorded after 30 min [22].

[5] = sodium linoleate 0.1 mM, 7 min incubation, read-out: Lipoxygenase IC50
[6] = read-out: % Reduction LDL-C (LDL cholesterol)
[7] = read-out: % Reduction TC (total cholesterol)
[8] = read-out: % Reduction TG (triglycerides)
[9] = sodium linoleate 0.1 mM, 7 min incubation

| Compound | IC50 (soybean lipoxygenase-1; [5]) | inhibition in vivo at 150 µmol/kg [1] | inhibition in vivo at 50 µmol/kg [2, 6] | inhibition in vivo at 50 µmol/kg [2, 7] | inhibition in vivo at 50 µmol/kg [2, 8] | melting point | other results |
| --- | --- | --- | --- | --- | --- | --- | --- |
| CC(C)(C)c1cc(/C=C/C(=O)O)cc(C(C)(C)C)c1O [BHA, (E)-3-(3,5-di-tert-butyl-4-hydroxyphenyl)acrylic acid, reference compound] | > 300 µM |  |  |  |  |  |  |
| CC(C)Cc1ccc(C(C)C(=O)OC2N=C(c3ccccc3Cl)c3cc(Cl)ccc3NC2=O)cc1 (centres unmarked) [Compound 1, 7-Chloro-5-(2-chlorophenyl)-2-oxo-2,3-dihydro-1H-benzo[e][1,4]diazepin-3-yl 2-(4-isobutylphenyl) propanoate] |  | 68% | 43% | 44% | 57% | 105 to 122 °C | inhibition in vivo at 150 µmol/kg [2, 6]: 56%; inhibition in vivo at 150 µmol/kg [2, 7]: 82%; inhibition in vivo at 150 µmol/kg [2, 8]: 65%; Lipoxygenase % Inhibition (soybean lipoxygenase-1; compound 50 µΜ, sodium linoleate 0.1 mM, 7 min incubation): 14%/50 µΜ |
| COc1ccc2cc(C(C)C(=O)OC3N=C(c4ccccc4Cl)c4cc(Cl)ccc4NC3=O)ccc2c1 (centres unmarked) [Compound 2, 7-Chloro-5-(2-chlorophenyl)-2-oxo-2,3-dihydro-1H-benzo[e][1,4]diazepin-3-yl 2-(6-methoxynaphthalen-2-yl)propanoate] |  | 46% | 42% | 60% | 71% | 136 to 139 °C | Lipoxygenase IC50 (soybean lipoxygenase-1; [9]): - |
| CC(C(=O)OC1N=C(c2ccccc2Cl)c2cc(Cl)ccc2NC1=O)c1cccc(C(=O)c2ccccc2)c1 (centres unmarked) [Compound 3, 7-Chloro-5-(2-chlorophenyl)-2-oxo-2,3-dihydro-1H-benzo[e][1,4]diazepin-3-yl 2-(3-benzoylphenyl)propanoate] | 84 µM | 65% |  |  |  | 195 to 201 °C |  |
| COc1ccc2c(c1)c(CC(=O)OC1N=C(c3ccccc3Cl)c3cc(Cl)ccc3NC1=O)c(C)n2C(=O)c1ccc(Cl)cc1 (centres unmarked) [Compound 4, 7-Chloro-5-(2-chlorophenyl)-2-oxo-2,3-dihydro-1H-benzo[e][1,4]diazepin-3-yl 2-(1-(4-chlorobenzoyl)-5-methoxy-2-methyl-1H-indol-3-yl)acetate] | 86 µM | 67% | 60% | 59% | 59% | 189 to 191 °C |  |
| Cc1c(Cl)cccc1Nc1ccccc1C(=O)OC1N=C(c2ccccc2Cl)c2cc(Cl)ccc2NC1=O (centres unmarked) [Compound 5, 7-Chloro-5-(2-chlorophenyl)-2-oxo-2,3-dihydro-1H-benzo[e][1,4]diazepin-3-yl 2-((3-chloro-2-methylphenyl)amino)benzoate] |  | 55% | 48% | 56% | 57% | 206 to 207 °C | Lipoxygenase % Inhibition (soybean lipoxygenase-1; compound 100 µΜ, sodium linoleate 0.1 mM, 7 min incubation): 22%/100 µΜ |
| O=C(CCCCC1CCSS1)OC1N=C(c2ccccc2Cl)c2cc(Cl)ccc2NC1=O (centres unmarked) [Compound 6, 7-Chloro-5-(2-chlorophenyl)-2-oxo-2,3-dihydro-1H-benzo[e][1,4]diazepin-3-yl 5-(1,2-dithiolan-3-yl)pentanoate] |  | 39% | 47% | 48% | 39% | 184 to 189 °C | inhibition in vivo at 150 µmol/kg [2, 6]: 60%; inhibition in vivo at 150 µmol/kg [2, 7]: 82%; inhibition in vivo at 150 µmol/kg [2, 8]: 41%; Antioxidant activity (lipid peroxidation and DPPH experiments) [3]: do not express any antioxidant activity; also recorded: inactive; IC50 (soybean lipoxygenase-1): 60 µM |
| Cc1c(C)c2c(c(C)c1O)CCC(C)(C(=O)OC1N=C(c3ccccc3Cl)c3cc(Cl)ccc3NC1=O)O2 (centres unmarked) [Compound 7, 7-Chloro-5-(2-chlorophenyl)-2-oxo-2,3-dihydro-1H-benzo[e][1,4]diazepin-3-yl 6-hydroxy-2,5,7,8-tetramethylchroman-2-carboxylate] |  | 56% |  |  |  | 138 to 144 °C | inhibition in vivo at 150 µmol/kg [2, 6]: 69%; inhibition in vivo at 150 µmol/kg [2, 7]: 72%; inhibition in vivo at 150 µmol/kg [2, 8]: 64%; Percent Interaction with DPPH ([4]; compound 50 µΜ): 46%; Percent Interaction with DPPH ([4]; compound 100 µΜ): 82%; Percent Interaction with DPPH ([4]; compound 200 µΜ): 91%; IC50 [3]: 2.5 µM; Lipoxygenase IC50 (soybean lipoxygenase-1; [9]): - |
| O=C(Cc1c[nH]c2ccccc12)OC1N=C(c2ccccc2Cl)c2cc(Cl)ccc2NC1=O (centres unmarked) [Compound 9, 7-Chloro-5-(2-chlorophenyl)-2-oxo-2,3-dihydro-1H-benzo[e][1,4]diazepin-3-yl 2-(1H-indol-3-yl)acetate] |  | 43% |  |  |  | 257 to 258 °C | Antioxidant activity (lipid peroxidation and DPPH experiments) [3]: do not express any antioxidant activity; IC50 (soybean lipoxygenase-1): 255 µM |
| CC(C)Cc1ccc(C(C)C(=O)O)cc1 (centres unmarked) [Ibuprofen, reference compound] |  | 36% |  |  |  |  | inhibition in vivo at 300 µmol/kg [2, 6]: 42%; inhibition in vivo at 300 µmol/kg [2, 7]: 41%; inhibition in vivo at 300 µmol/kg [2, 8]: 38% |
| COc1ccc2c(c1)c(CC(=O)O)c(C)n2C(=O)c1ccc(Cl)cc1 [Indomethacin, reference compound] |  | 42% |  |  |  |  |  |
| COc1ccc2cc([C@H](C)C(=O)O)ccc2c1 [Naproxen, reference compound] |  | 11% |  |  |  |  | inhibition in vivo at 500 µmol/kg [2, 6]: 26%; inhibition in vivo at 500 µmol/kg [2, 7]: 53%; inhibition in vivo at 500 µmol/kg [2, 8]: 44% |
| Cc1c(Cl)cccc1Nc1ccccc1C(=O)O [Tolfenamic acid, reference compound] | 170 µM | 24% |  |  |  |  |  |
| Cc1c(C)c2c(c(C)c1O)CCC(C)(C(=O)O)O2 (centres unmarked) [Trolox, 6-hydroxy-2,5,7,8-tetramethylchroman-2-carboxylic acid, reference compound] | > 300 µM |  |  |  |  |  | Percent Interaction with DPPH ([4]; compound 50 µΜ): 38%; Percent Interaction with DPPH ([4]; compound 100 µΜ): 90%; Percent Interaction with DPPH ([4]; compound 200 µΜ): 92%; IC50 [3]: 25 µM |
